These results are taken from patent publication US8802731B2, “N-acetyl beta alanine methods of use” (ThermoLife International, LLC, priority 2011, dated 2014).

One series is described as follows: solubility in water. The settings on record: found by applicants. In kind it is physicochemical.
Series [1] can be described thus: solubility in organic solvents. It counts as physicochemical.
Series [2] concerns subjects. The series can be described thus: paresthesia after administration of N-acetyl beta alanine to subjects. In kind it is in vivo, human. An excerpt: For the exemplary purposes of this disclosure, the Applicants have administered N-acetyl beta alanine to over 30 different subjects in doses ranging from 1 to even 10 grams.
The test system of another series is well trained athletes. Put plainly: effects reported by well trained athletes given N-acetyl-beta alanine. In kind it is in vivo, human. The following applies: 5 grams per day x1, 10 well trained athletes, self-report. The source says: For the exemplary purposes of this disclosure, the Applicants have also administered N-acetyl-beta alanine at a dose of 5 grams per day ×1 in 10 subjects, all of them well trained athletes that had in the past used beta alanine and were well aware of it's benefits. All of the subjects had not used beta alanine for at least a month. They were asked to report the effects of the “new beta alanine preparation” they were offered.

A further series deals with mice. The settings on record: cited from earlier work.
For series [3] the following is noted: described (literature); cited from earlier work.
The next series relates to elderly men and women. The settings on record: cited from earlier work.
The conditions of series [4]: single ingested dose; cited from earlier work.
For series [5] the following is noted: cited from earlier work.
Series [6] concerns subjects. The settings on record: 10 weeks of resistance training with supplementation; cited from earlier work.
For series [7] the following is noted: cited from earlier work. This is another data set of the same source.
A further series concerns individuals. The following applies: cited from earlier work.
Series [8] concerns experienced resistance-trained athletes. The settings on record: four weeks of supplementation; cited from earlier work.
The subject of another series is fructose-fed rats. The following applies: preliminary experiment; cited from earlier work.

`CC(=O)NCCC(=O)O` [N-acetyl beta alanine, 3-acetamidopropanoic acid] gave a solubility in water in the series “solubility in water” of 22 g/100 mL. The “solubility in water and organic solvents” value in series [1] was “soluble in water and organic solvents”. Besides, in the series on subjects [2] (large doses of 5+ grams), the paresthesia result was “no paresthesia observed”. Further, the “paresthesia or negative feelings described by users” value in the series on subjects [2] (over 30 subjects, doses ranging from 1 to 10 grams) is reported as “No paresthesia or negative feelings”. Besides, in the series with well trained athletes, the “rate at which full benefits were exhibited” value was “full benefits were exhibited at a faster rate” and the “reported effectiveness compared with normal beta-alanine” value is listed as “improved effectiveness over normal beta-alanine”.

As to `NCCC(=O)O` [beta alanine, β-Alanine], the “behavioral effect of supplemented diet” value in the series on mice is given as “anxiolytic-like effect”. In [3], the water solubility is on record as 55-89 grams/100 ml. Moreover, in the series with elderly men and women (800 mg x3 per day, elderly (55-92 years)), the “increase in physical working capacity fatigue threshold” value is 28%. The “physical working capacity / onset of neuromuscular fatigue” value with elderly men and women (ninety days of supplementation, elderly men and women) is on record as “may increase physical working capacity by delaying the onset of neuromuscular fatigue”. Further, in series [4], the “single dose above which symptoms of paresthesia may be observed” value is “higher than 800 mg”. In series [5] (in vivo), the “maximal strength or VO2max” value is “does not improve maximal strength or VO2max” and the “onset of neuromuscular fatigue” value is reported as “delay the onset of neuromuscular fatigue”. Besides, in [5] (multiple bouts of high-intensity exercise and single bouts lasting more than 60 s), the “performance in high-intensity exercise” value is “improvements in performance”. Besides, the “increase in Muscle-Carnosine” value in the series with subjects [6] was 12.81+/−7.97 mmol×kg (−1) dry muscle. For the same molecule, the “acidosis due to exercise” value in series [7] (4.8 grams per day) is “can attenuate acidosis due to exercise”. The “fall in blood pH during high-intensity exercise” value in [7] (chronic supplementation) is given as “can attenuate the fall in blood pH”. Besides, the “aerobic capacity (VO2max)” value with individuals (post supplementation, 28 days) is on record as “reduced aerobic capacity”. In the series on individuals (supplementation for 28 days), the “sub-maximal endurance performance (OBLA)” value was “enhanced sub-maximal endurance performance by delaying OBLA”. Moreover, the “muscular endurance during resistance training” value in series [8] is “can significantly improve muscular endurance”.

`NCCC(=O)N[C@@H](Cc1cnc[nH]1)C(=O)O` [carnosine]: the “diabetes-associated increase in blood pressure” value with fructose-fed rats was “suppressed diabetes-associated increase in blood pressure”.

For `NCCS(=O)(=O)O` [taurine], in the series with mice, the “behavioral effect of supplemented diet” value was “antidepressant-like effect”.
